Patent US20150087687A1 (priority 2012, published 2015)
Like-named read-outs stand apart in the source and are kept apart here.

How the values were obtained:
[1] = cited from earlier work
U937 = settings: AML; cited from earlier work
[2] = tested on: chronic myelogenous leukemia (CML); settings: cited from earlier work
[3] = tested on: hepatic cytochrome P450 (CYP); settings: cited from earlier work
[4] = biological target: glycogen synthase kinase-3β (GSK-3β) (Homo sapiens, UniProt P49841); settings: concentration at which inhibition is stated; cited from earlier work
[5] = tested on: negative cell cycle regulators p21 and p27; settings: induces cell cycle arrest; cited from earlier work
Bcl-2 = settings: induces apoptosis; cited from earlier work
K562 [6] = settings: CML; cited from earlier work
cytochrome P450 2C19 = cytochrome P450 2C19 (Homo sapiens, UniProt P33261); assay: metabolism by cytochrome P450 2C19; type: in vitro ADME; settings: by oxidation
STK25 = STK25 (Homo sapiens, UniProt O00506); assay: targeting of kinases (FIG. 4): STK25; type: binding
VCAM-1 = settings: antiangiogenic effects; cited from earlier work
ECV304 [7] = settings: antiangiogenic effects; cited from earlier work
[8] = rats; cited from earlier work
microtubule assembly = settings: cited from earlier work
[9] = cited from earlier work; remark: listed apart in the source
ECV304 [10] = settings: cited from earlier work
W256 cells = settings: cited from earlier work
ERBB3 = ERBB3 (Homo sapiens, UniProt P21860); assay: targeting of kinases (FIG. 4): ERBB3; type: binding
VEGF = settings: antiangiogenic effects; cited from earlier work
cytochrome P450 1A2 [11] = biological target: T1, cytochrome P450 1A2 (Homo sapiens, UniProt P05177); assay: inhibition of cytochrome P450 1A2; type: in vitro ADME
mitochondria = settings: effects on mitochondria; cited from earlier work
Jurkat cells = settings: inducing phosphorylation of c-Myb; cited from earlier work
[12] = tested on: HT-29 colorectal xenografts; settings: mouse, in vivo; cited from earlier work
[13] = rat; cited from earlier work
[14] = tested on: malignant cell lines, particularly AML cell lines; assay: viability of cancer cell lines (Example 2); type: cell-based; settings: 0.1-100 μM, 24 or 48 hours, FIG. 1-3
Method: Viability at 48 hours is shown by (♦); viability at 24 hours is shown by (▪).

[15] = cited from earlier work; remark: listed apart in the source
NEK9 = NEK9 (Homo sapiens, UniProt Q8TD19); assay: targeting of kinases (FIG. 4): NEK9; type: binding
[16] = tested on: cell lines and primary cancer cells; settings: cited from earlier work
AML cell lines = settings: cited from earlier work
murine cancer models = settings: mouse, in vivo; cited from earlier work
[17] = tested on: Walker 256 carcino-sarcoma; settings: in vivo; cited from earlier work
NB4 = settings: AML; cited from earlier work
HUVEC [18] = settings: antiangiogenic effects; cited from earlier work
[19] = tested on: uridine glucuronyltransferases (UGT); assay: metabolism by uridine glucuronyltransferases; type: in vitro ADME; settings: direct conjugation, without initial cytochrome P450 oxidation; more polar metabolites
K562 cells = settings: cited from earlier work
[20] = tested on: human myeloblastic leukemic cells; settings: cited from earlier work
cytochrome P450 1A2 [21] = biological target: T1, cytochrome P450 1A2; assay: metabolism by cytochrome P450 1A2; type: in vitro ADME; settings: by oxidation
[22] = tested on: HT-29 colorectal cell lines; settings: cited from earlier work
cytochrome P450 2C8 = cytochrome P450 2C8 (Homo sapiens, UniProt P10632); assay: inhibition of cytochrome P450 2C8; type: in vitro ADME
primary AML = settings: cited from earlier work
HL-60 cells = settings: cited from earlier work
HUVEC [23] = settings: cited from earlier work
primary AML cells = settings: cited from earlier work
HL-60 myeloid cells = settings: cited from earlier work
CD11b = settings: promoting myeloid differentiation; cited from earlier work
K562 [24] = settings: cited from earlier work
[25] = cited from earlier work; remark: listed apart in the source
AML cells = AML cells (DKO insensitive to chemotherapy); cited from earlier work
AML NOD/SCID model = settings: cited from earlier work
Lewis lung sarcoma = settings: mouse, in vivo; cited from earlier work
HL-60 = settings: AML; cited from earlier work
[26] = cited from earlier work; remark: listed apart in the source

T1 sequence (P05177 whole entry): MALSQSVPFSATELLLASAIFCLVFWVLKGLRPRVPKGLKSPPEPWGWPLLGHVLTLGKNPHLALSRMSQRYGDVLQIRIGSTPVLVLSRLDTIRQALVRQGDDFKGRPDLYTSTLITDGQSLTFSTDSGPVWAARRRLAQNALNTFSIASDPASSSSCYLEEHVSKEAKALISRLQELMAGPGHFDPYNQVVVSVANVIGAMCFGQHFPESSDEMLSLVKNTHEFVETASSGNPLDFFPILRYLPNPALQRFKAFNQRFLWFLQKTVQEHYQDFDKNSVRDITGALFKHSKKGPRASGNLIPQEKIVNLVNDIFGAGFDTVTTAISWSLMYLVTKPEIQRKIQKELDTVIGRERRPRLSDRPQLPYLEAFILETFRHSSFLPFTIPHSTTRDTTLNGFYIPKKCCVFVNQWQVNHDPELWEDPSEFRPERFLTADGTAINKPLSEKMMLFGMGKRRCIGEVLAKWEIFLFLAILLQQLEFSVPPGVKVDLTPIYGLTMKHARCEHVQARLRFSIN
Sequence of cytochrome P450 2C8 (P10632 whole entry): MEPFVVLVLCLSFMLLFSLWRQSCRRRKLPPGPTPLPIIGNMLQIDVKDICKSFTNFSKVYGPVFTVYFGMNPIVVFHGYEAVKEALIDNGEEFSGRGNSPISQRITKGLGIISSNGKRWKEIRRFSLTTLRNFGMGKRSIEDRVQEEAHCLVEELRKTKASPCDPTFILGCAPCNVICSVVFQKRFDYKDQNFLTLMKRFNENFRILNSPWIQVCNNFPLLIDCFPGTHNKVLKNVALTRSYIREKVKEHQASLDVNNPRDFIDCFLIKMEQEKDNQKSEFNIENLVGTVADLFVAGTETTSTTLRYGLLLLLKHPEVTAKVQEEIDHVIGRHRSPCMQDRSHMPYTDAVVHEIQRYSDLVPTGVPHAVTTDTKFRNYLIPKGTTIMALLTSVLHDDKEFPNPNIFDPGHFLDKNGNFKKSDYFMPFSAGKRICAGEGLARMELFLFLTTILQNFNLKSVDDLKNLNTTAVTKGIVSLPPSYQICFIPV
Sequence of NEK9 (Q8TD19 whole entry, species assumed): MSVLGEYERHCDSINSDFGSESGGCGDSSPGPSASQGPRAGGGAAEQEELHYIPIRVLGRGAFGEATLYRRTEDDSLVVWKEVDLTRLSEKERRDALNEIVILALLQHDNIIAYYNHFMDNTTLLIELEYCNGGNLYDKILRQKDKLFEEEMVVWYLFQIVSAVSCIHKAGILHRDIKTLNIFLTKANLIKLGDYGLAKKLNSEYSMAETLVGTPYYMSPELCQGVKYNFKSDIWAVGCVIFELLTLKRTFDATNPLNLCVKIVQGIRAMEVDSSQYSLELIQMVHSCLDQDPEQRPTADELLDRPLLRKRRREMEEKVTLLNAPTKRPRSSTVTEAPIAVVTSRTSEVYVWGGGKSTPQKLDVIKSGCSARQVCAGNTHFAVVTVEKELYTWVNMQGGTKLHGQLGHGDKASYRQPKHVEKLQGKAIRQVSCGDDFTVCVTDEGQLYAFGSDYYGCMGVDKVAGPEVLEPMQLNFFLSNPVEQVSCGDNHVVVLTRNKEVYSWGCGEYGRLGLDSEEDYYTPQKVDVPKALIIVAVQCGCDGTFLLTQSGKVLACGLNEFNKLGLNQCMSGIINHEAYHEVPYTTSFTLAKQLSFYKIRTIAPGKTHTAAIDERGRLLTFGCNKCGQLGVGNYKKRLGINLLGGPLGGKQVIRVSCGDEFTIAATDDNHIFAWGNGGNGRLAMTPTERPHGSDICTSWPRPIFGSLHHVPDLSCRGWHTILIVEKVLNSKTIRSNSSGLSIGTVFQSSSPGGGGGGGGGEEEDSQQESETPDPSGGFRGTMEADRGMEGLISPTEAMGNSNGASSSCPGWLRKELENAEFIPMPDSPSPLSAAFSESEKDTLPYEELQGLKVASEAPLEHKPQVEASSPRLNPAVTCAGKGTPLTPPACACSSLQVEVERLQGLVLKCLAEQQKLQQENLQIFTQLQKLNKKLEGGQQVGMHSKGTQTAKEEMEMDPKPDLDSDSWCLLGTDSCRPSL
Sequence of cytochrome P450 2C19 (P33261 whole entry): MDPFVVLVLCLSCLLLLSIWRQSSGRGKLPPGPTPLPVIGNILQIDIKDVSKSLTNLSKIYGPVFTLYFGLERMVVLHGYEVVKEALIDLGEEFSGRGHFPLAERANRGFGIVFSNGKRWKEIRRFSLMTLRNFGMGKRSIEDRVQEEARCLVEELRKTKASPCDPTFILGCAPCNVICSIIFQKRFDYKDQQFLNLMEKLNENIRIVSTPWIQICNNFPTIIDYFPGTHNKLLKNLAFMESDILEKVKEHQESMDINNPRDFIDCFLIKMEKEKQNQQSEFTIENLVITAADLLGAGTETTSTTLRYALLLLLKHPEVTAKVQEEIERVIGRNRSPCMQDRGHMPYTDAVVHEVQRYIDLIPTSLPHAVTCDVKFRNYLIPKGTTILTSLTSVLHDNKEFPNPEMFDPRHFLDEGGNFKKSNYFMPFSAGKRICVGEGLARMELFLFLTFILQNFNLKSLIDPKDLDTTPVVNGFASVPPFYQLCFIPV
Sequence of ERBB3 (P21860 20-1342, species assumed): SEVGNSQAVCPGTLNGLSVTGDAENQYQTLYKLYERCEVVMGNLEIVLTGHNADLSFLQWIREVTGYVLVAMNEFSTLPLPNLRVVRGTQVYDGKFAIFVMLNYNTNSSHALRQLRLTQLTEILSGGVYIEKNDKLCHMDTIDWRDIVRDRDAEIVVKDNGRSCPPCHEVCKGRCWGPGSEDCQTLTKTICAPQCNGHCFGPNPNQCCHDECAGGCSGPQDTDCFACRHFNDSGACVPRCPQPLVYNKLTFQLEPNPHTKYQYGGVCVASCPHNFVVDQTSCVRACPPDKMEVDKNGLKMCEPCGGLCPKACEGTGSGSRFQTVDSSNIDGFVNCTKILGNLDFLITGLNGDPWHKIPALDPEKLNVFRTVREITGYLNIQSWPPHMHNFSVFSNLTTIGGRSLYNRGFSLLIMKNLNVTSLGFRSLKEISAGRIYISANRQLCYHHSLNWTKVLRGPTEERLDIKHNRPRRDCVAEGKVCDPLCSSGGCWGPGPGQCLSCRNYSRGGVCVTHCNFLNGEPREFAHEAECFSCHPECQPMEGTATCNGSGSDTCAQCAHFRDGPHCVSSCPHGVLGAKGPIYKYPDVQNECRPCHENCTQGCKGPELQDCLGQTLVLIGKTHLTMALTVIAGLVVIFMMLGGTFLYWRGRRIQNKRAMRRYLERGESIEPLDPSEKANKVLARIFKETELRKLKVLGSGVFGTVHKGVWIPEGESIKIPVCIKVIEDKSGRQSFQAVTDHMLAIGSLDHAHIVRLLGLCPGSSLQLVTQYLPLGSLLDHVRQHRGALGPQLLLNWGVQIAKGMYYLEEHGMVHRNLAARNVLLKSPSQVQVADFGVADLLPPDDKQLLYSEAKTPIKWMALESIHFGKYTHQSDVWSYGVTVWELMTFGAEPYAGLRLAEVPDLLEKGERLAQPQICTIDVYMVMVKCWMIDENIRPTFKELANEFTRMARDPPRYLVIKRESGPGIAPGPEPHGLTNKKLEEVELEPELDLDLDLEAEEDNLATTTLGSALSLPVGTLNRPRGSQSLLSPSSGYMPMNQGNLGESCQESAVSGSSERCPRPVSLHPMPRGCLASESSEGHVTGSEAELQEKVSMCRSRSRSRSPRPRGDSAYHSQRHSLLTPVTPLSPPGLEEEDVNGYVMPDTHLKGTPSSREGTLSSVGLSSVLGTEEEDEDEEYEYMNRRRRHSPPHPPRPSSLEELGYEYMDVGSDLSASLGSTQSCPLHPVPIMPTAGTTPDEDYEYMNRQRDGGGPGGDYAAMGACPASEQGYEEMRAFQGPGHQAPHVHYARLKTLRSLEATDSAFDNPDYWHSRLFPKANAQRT
Sequence of glycogen synthase kinase-3β (GSK-3β) (P49841 whole entry, species assumed): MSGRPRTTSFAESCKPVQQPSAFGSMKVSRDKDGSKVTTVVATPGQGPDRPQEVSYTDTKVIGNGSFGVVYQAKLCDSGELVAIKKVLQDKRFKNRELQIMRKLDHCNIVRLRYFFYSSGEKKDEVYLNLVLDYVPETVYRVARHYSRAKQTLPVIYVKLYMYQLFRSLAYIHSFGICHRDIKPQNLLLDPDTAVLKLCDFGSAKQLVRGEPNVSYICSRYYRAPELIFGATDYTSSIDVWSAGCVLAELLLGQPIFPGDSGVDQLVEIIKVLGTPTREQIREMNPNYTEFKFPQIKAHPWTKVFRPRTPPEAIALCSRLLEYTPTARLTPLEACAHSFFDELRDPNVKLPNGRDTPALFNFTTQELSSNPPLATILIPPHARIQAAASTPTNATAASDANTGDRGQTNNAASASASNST
Sequence of STK25 (O00506 whole entry, species assumed): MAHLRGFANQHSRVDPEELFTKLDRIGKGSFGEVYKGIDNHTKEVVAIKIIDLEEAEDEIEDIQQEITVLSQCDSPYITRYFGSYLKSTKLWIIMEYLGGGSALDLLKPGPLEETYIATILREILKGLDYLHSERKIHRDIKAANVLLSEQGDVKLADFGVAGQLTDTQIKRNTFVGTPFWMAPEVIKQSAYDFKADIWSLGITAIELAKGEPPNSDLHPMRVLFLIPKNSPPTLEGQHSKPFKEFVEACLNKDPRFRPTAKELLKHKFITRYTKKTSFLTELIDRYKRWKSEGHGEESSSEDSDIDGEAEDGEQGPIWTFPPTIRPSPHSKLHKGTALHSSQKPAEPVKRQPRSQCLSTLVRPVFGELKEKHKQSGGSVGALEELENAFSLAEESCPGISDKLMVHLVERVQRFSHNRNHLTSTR

CN1C(=O)/C(=C2/C(=O)Nc3ccccc32)c2ccccc21 [meisoindigo, 3-(1,2-dihydro-2-oxo-3H-indol-3-ylidene)-1,3-dihydro-1-methyl-2H-indol-2-one]
human hepatic internal CL (Clint) [1]: ~83 mL/mg/kg
activity against U937 (U937): activity
complete hematologic response ([2]; 50-200 mg/d p.o.): 33 % of patients
partial hematologic response ([2]; 50-200 mg/d p.o.): 58 % of patients
reduction of leukocyte count (median) ([2]; 50-200 mg/d p.o.): 31 days
reduction of splenomegaly (median) ([2]; 50-200 mg/d p.o.): 25 days
effect with hydroxyurea ([2]; combination with hydroxyurea): synergistic effect
sex differences in metabolism [3]: no sex differences
metabolic routes ([3]; hepatic cytochrome P450 (CYP)-mediated): N-demethylation and mono ring hydroxylation
interspecies differences in metabolism ([3]; rats, pigs, and humans): no major interspecies differences
inhibition of GSK-3β at [4]: 5 to 50 nM
p21 [5]: upregulation
p27 [5]: upregulation
Bcl-2 (Bcl-2): suppression
activity against K562 (K562 [6]): activity
metabolized by cytochrome P450 2C19 (cytochrome P450 2C19): metabolized
binding with STK25 (STK25): significant binding
VCAM-1 (VCAM-1): decreased
ECV304 apoptosis (ECV304 [7]): apoptosis
single dose LD50 [8]: 3900 mg/kg
microtubule assembly (microtubule assembly): inhibition
target organs ([9]; dog): liver and the gastrointestinal tract
well tolerated dose ([9]; dogs, p.o. for 6 months): 10 mg/kg/day
activity against ECV304 (ECV304 [10]): activity
DNA synthesis (W256 cells): inhibition
RNA synthesis (W256 cells): inhibition
binding with ERBB3 (ERBB3): significant binding
VEGF protection (VEGF): decreased
inhibits cytochrome P450 1A2 at (cytochrome P450 1A2 [11]): low micromolar concentrations
Bax protein expression (mitochondria): no change
Bcl-2 protein expression (mitochondria): no change
Bid protein expression (mitochondria): no change
Ahi-1 (Jurkat cells): upregulation
efficacy in HT-29 colorectal xenografts [12]: effective
target organs [13]: liver and the gastrointestinal tract
killing of malignant cell lines [14]: effective in killing
water solubility [15]: water-soluble
binding with NEK9 (NEK9): strongest binding
IC50 ([16]; cell lines and primary cancer cells): high-μM concentration range
active against cell lines and primary cancer cells [16]: active
cell cycle specific effect (AML cell lines): arrest in G(O)/G1
efficacy in murine cancer models (murine cancer models): effective
efficacy in Walker 256 carcino-sarcoma [17]: effective
activity against NB4 (NB4): activity
tubule formulation in HUVEC (HUVEC [18]): decreased
metabolized by UGT [19]: metabolized
apoptosis mechanism (K562 cells): novel caspase-dependent pathway
c-myb gene expression [20]: downregulation
differentiation [20]: promotes differentiation
metabolized by cytochrome P450 1A2 (cytochrome P450 1A2 [21]): metabolized
cell cycle specific effect [22]: G2/M arrest
inhibits cytochrome P450 2C8 at (cytochrome P450 2C8): low micromolar concentrations
activity against primary AML (primary AML): activity
c-myc (HL-60 cells): decreases
β-catenin (HL-60 cells): decreases
activity against HUVEC (HUVEC [23]): activity
Bcl-2 (primary AML cells): downregulation
p21 (primary AML cells): upregulation
p27 (primary AML cells): upregulation
cleavage of PARP (HL-60 myeloid cells): stimulates the cleavage
cleavage of pro-caspase 3 (HL-60 myeloid cells): stimulates the cleavage
cleavage of pro-caspase 8 (HL-60 myeloid cells): stimulates the cleavage
cleavage of pro-caspase 9 (HL-60 myeloid cells): stimulates the cleavage
CD11b (CD11b): upregulation
c-myc (K562 [24]): not
mild nausea and vomiting ([25]; clinical trials, single agent or in combination with chemotherapy): 30%
cardiac, hepatic, or renal adverse effects ([25]; clinical trials): no cardiac, hepatic, or renal adverse effects
course of nausea and vomiting ([25]; clinical trials): spontaneously disappeared in two weeks
tolerability ([25]; several patient populations): well tolerated
Bak (AML cells): upregulation
Bax (AML cells): upregulation
spleen size (AML NOD/SCID model; AML NOD/SCID model): dose-dependent spleen size reduction
efficacy in AML NOD/SCID model (AML NOD/SCID model; mouse, in vivo): effective
efficacy in Lewis lung sarcoma (Lewis lung sarcoma): effective
activity against HL-60 (HL-60): activity
absorption ([26]; in vivo): rapidly absorbed
distribution ([26]; in vivo): widely distributed in the tissues
excretion ([26]; renal and biliary routes): renal excretion strongly predominating
